Experimental data from publication PMC4076210, “Discovery of Novel AKT Inhibitors with Enhanced Anti-Tumor Effects in Combination with the MEK Inhibitor” (PLoS ONE, 2014).

Legend:
HPAC tumor xenografts = test: Xenograft tumor growth inhibition, combination with MEK inhibitor; format: in vivo, mouse; conditions: 0.3 mg/kg daily, day 42
Protocol: (§1) Tumors were initiated by injecting either cells (SKOV3, CAPAN-2 and HPAC) or a tumor fragments (BT474) subcutaneously into 6–8 week female athymic nude (SKOV3) and SCID (all others) mice. Once tumors reached between 120 and 300 mm^3, mice were randomized according to tumor volume into groups of n = 7–10 mice per treatment. GSK2110183 and GSK2141795 were administered daily at various doses by oral gavage. In combination experiments, GSK1120212 was also administered daily by oral gavage. Tumor volumes and body weight were measured twice weekly, tumor volume was measured with calipers and calculated using equation: […]. Results are represented as percent inhibition on completion of dosing = 100 x [1- average growth of drug-treated population/average growth of vehicle-treated control population].

CAPAN-2 tumor xenografts = test: as above; format: in vivo, mouse; conditions: 0.3 mg/kg, day 69
Protocol: as §1

[1] = design: method as in PMID 18381444; conditions: mice; cited from earlier work

`CC(=O)Nc1cccc(-n2c(=O)n(C3CC3)c(=O)c3c(Nc4ccc(I)cc4F)n(C)c(=O)c(C)c32)c1` [GSK1120212, trametinib, reference compound] showed a TGI (HPAC tumor xenografts) of 65% and a TGI (CAPAN-2 tumor xenografts) of 90%.

In the case of `CCn1c(-c2nonc2N)nc2c(C#CC(C)(C)O)ncc(OC[C@H]3CCCNC3)c21` [GSK690693], the “hyperglycemia (blood glucose)” value [1] is given as about 500 mg/dL.
